pIC50: −log10 of the molar value.
Target: T1, hmGlu5 (Homo sapiens, UniProt P41594)
T1 construct: expressed in transfected cells; host or cells: HEK 293A
Experiment: mGlu5 Ca2+ flux assay in HEK 293A cells (negative allosteric modulation of glutamate EC80 response)
Assay type: cell-based
Conditions: for remaining activity at 30 µM: HEK293-A, % Glu max at 30 μM, read-out: hmGlu5 NAM Emin (%); for pIC50: HEK 293A cells, Ca2+ flux, glutamate EC80, >10,000 = decrease without plateau, read-out: hmGlu5 NAM IC50
Method: HEK 293A cells stably expressing either rat or human mGlu5 were plated in black-walled, clear-bottomed, poly-D-lysine coated 384-well plates in 20 μL of assay medium (DMEM containing 10% dialyzed FBS, 20 mM HEPES, 100 units/mL penicillin/streptomycin plus 250 ng/mL Fungizone, and 1 mM sodium pyruvate) at a density of 20K cells/well. The cells were grown overnight at 37° C. in the presence of 5% CO2. The next day, medium was removed and the cells incubated with 20 μL of 2.3 μM Fluo-4, AM prepared as a 2.3 mM stock in DMSO and mixed in a 1:1 ratio with 10% (w/v) pluronic acid F-127 and diluted in assay buffer (Hank's balanced salt solution, 20 mM HEPES, and 2.5 mM probenecid) for 45 minutes at 37° C. Dye was removed, 20 μL of assay buffer was added, and the plate was incubated for 5 minutes at room temperature.
Ca^2+ flux was measured using the Functional Drug Screening System (FDSS7000, Hamamatsu, Japan). After establishment of a fluorescence baseline for about 3 seconds, the compounds of the present invention were added to the cells, and the response in cells was measured. 2.3 minutes later an EC20 concentration of the mGlu5 receptor agonist glutamate was added to the cells, and the response of the cells was measured for 1.9 minutes; an EC80 concentration of agonist was added and readings taken for an additional 1.7 minutes. All test compounds were dissolved and diluted to a concentration of 10 mM in 100% DMSO. Compounds were then serially diluted 1:3 in DMSO into 10 point concentration response curves, transferred to daughter plates, and further diluted into assay buffer to a 2× stock. Calcium fluorescence measures were recorded as fold over basal fluorescence; raw data was then normalized to the maximal response to glutamate. Antagonism of the agonist response of the mGlu5 receptor in the present invention was observed as a decrease in response to nearly maximal concentrations of glutamate in the presence of compound compared to the response to glutamate in the absence of compound.
The raw data file containing all time points was used as the data source in the analysis template. This was saved by the FDSS as a tab-delimited text file. Data were normalized using a static ratio function (F/F0) for each measurement of the total 360 values per well divided by each well's initial value. Data were then reduced to peak amplitudes (Max−Initial Min) using a time range that starts approximately 3 seconds prior to the glutamate EC20/EC80 addition and continues for approximately 90-120 seconds. This is sufficient time to capture the peak amplitude of the cellular calcium response. Individual amplitudes were expressed as % EMax by multiplying each amplitude by 100 and then dividing the product by the mean of the amplitudes derived from the glutamate ECMax-treated wells. IC50 values for test compounds were generated by fitting the normalized values versus the log of the test compound concentration (in mol/L) using a 4 parameter logistic equation where none of the parameters were fixed. Each of the three values collected at each concentration of test compound were weighted evenly.
For NAMs with a CRC that plateaus above 10% Glu Max, the IC50 values are reported, the compound is designated a “partial NAM” and the % Glu Max is reported. […] Compounds without measurable activity are designated as “>30,000 nM” since the top concentration of compound tested in the assay is 30 μM. […]

T1 sequence (P41594 21-1212): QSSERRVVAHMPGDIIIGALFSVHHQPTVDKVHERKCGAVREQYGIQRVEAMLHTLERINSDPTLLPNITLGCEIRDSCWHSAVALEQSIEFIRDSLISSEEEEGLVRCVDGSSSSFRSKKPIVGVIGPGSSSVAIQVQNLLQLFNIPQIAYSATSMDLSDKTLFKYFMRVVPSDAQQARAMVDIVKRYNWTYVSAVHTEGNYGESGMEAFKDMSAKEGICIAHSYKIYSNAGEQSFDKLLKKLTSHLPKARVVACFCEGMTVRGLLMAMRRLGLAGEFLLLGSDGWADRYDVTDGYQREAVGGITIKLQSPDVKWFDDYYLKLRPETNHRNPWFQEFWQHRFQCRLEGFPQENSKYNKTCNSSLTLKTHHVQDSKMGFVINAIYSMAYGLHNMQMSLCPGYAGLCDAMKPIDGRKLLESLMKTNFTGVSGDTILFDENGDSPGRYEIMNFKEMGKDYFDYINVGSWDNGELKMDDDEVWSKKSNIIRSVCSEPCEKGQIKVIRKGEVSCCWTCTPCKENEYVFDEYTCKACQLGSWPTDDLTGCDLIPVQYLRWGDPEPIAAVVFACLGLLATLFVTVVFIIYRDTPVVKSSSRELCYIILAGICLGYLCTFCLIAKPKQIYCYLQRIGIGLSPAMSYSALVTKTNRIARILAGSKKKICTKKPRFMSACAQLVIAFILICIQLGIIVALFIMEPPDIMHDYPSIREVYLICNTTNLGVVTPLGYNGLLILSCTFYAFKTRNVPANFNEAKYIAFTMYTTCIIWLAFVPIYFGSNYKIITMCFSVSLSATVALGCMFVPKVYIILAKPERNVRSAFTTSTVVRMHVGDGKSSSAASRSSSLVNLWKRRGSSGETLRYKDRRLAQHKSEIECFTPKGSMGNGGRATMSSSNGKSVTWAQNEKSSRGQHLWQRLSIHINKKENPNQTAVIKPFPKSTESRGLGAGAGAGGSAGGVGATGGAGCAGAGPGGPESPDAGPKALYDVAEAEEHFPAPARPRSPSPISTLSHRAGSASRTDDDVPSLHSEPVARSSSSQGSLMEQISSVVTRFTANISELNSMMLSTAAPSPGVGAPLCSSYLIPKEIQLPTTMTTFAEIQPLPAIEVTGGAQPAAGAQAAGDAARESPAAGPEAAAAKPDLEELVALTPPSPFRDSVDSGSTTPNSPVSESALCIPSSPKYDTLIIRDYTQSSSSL

| SMILES | remaining activity at 30 µM [%] | pIC50 |
| --- | --- | --- |
| Cc1cccc(-c2nc(-c3cc(-c4cnccc4C)c(F)c(C)n3)no2)c1 [Compound 28, 3-(5′-fluoro-4,6′-dimethyl-[3,4′-bipyridin]-2′-yl)-5-(m-tolyl)-1,2,4-oxadiazole] | 2 | 7.16 |
| Cc1cc(-c2cncc(F)c2)cc(-c2noc(-c3ccc(F)cn3)n2)n1 [Compound 55, 3-(5-fluoro-6′-methyl-[3,4′-bipyridin]-2′-yl)-5-(5-fluoropyridin-2-yl)-1,2,4-oxadiazole] | 2 | 6.72 |
| Cc1ccncc1-c1cc(-c2noc(-c3cccc(C#N)c3)n2)nc(C)c1F [Compound 24, 3-(3-(5′-fluoro-4,6′-dimethyl-[3,4′-bipyridin]-2′-yl)-1,2,4-oxadiazol-5-yl)benzonitrile] | 2 | 7.07 |
| COCCOc1c(-c2cncc(F)c2)cc(-c2noc(-c3ccc(F)cn3)n2)nc1C [Compound 54, 3-(5-fluoro-5′-(2-methoxyethoxy)-6′-methyl-[3,4′-bipyridin]-2′-yl)-5-(5-fluoropyridin-2-yl)-1,2,4-oxadiazole] | 3 | 6.25 |
| Cc1nc(-c2noc(-c3ccc(F)cn3)n2)cc(-c2cncc(C(F)(F)F)c2)c1F [Compound 33, 3-(5′-fluoro-6′-methyl-5-(trifluoromethyl)-[3,4′-bipyridin]-2′-yl)-5-(5-fluoropyridin-2-yl)-1,2,4-oxadiazole] | 9 | 5.99 |
| Cc1nc(-c2noc(-c3cccc(F)c3)n2)cc(-c2cncc(F)c2)c1F [Compound 38, 3-(5,5′-difluoro-6′-methyl-[3,4′-bipyridin]-2′-yl)-5-(3-fluorophenyl)-1,2,4-oxadiazole] | 14 | 5.62 |
| Cc1csc(-c2nc(-c3cc(-c4cnc(C)s4)c(F)c(C)n3)no2)n1 [Compound 18, 3-(5-fluoro-6-methyl-4-(2-methylthiazol-5-yl)pyridin-2-yl)-5-(4-methylthiazol-2-yl)-1,2,4-oxadiazole] | 13 | 5.95 |
| Cc1nc(-c2nc(-c3ccc(F)cn3)no2)cc(-c2cnn(C(F)F)c2)c1F [Compound 9, 5-(4-(1-(difluoromethyl)-1H-pyrazol-4-yl)-5-fluoro-6-methylpyridin-2-yl)-3-(5-fluoropyridin-2-yl)-1,2,4-oxadiazole] | 2 | 6.48 |
| Cc1nc(-c2noc(-c3ccc(F)cn3)n2)cc(-c2ccc(C(F)(F)F)nc2)c1F [Compound 29, 3-(5′-fluoro-6′-methyl-6-(trifluoromethyl)-[3,4′-bipyridin]-2′-yl)-5-(5-fluoropyridin-2-yl)-1,2,4-oxadiazole] | 37 | 5.76 |
| Cc1ccncc1-c1cc(-c2nnc(-c3ccc(F)cn3)o2)nc(C)c1F [Compound 42, 2-(5′-fluoro-4,6′-dimethyl-[3,4′-bipyridin]-2′-yl)-5-(5-fluoropyridin-2-yl)-1,3,4-oxadiazole] | 2 | 6.43 |
| CCn1cc(-c2cc(-c3noc(-c4nc(C)cs4)n3)nc(C)c2F)cn1 [Compound 17, 3-(4-(1-ethyl-1H-pyrazol-4-yl)-5-fluoro-6-methylpyridin-2-yl)-5-(4-methylthiazol-2-yl)-1,2,4-oxadiazole] | 25 | < 5.00 |
| Cc1ccncc1-c1cc(-c2noc(-c3ccccn3)n2)nc(C)c1F [Compound 19, 3-(5′-fluoro-4,6′-dimethyl-[3,4′-bipyridin]-2′-yl)-5-(pyridin-2-yl)-1,2,4-oxadiazole] | 2 | 6.63 |

Now from value to molecule:

| remaining activity at 30 µM [%] | pIC50 | SMILES |
| --- | --- | --- |
| 3 | 6.69 | Cc1nc(-c2noc(-c3ccc(F)cn3)n2)cc(-c2cc(Cl)cc(C#N)c2)c1F [Compound 70, 3-chloro-5-(3-fluoro-6-(5-(5-fluoropyridin-2-yl)-1,2,4-oxadiazol-3-yl)-2-methylpyridin-4-yl)benzonitrile] |
| 45 | < 5.00 | Cc1cc(CC2CCOCC2)cc(-c2noc(-c3ccc(F)cn3)n2)n1 [Compound 71, 5-(5-fluoropyridin-2-yl)-3-(6-methyl-4-((tetrahydro-2H-pyran-4-yl)methyl)pyridin-2-yl)-1,2,4-oxadiazole] |
| 1 | 6.44 | Fc1ccc(-c2nnc(-c3cc(-c4cncc(F)c4)cc(C(F)F)n3)o2)nc1 [Compound 84, 2-(6′-(difluoromethyl)-5-fluoro-[3,4′-bipyridin]-2′-yl)-5-(5-fluoropyridin-2-yl)-1,3,4-oxadiazole] |
| 4 | 7.29 | Cc1nc(-c2nc(-c3ccc(F)cn3)no2)cc(-c2cncc(F)c2)c1F [Compound 59, 5-(5,5′-difluoro-6′-methyl-[3,4′-bipyridin]-2′-yl)-3-(5-fluoropyridin-2-yl)-1,2,4-oxadiazole] |
| 13 | 5.37 | Cc1cncc(-c2nc(-c3cc(-c4cnccc4C)c(F)c(C)n3)no2)c1 [Compound 87, 3-(5′-fluoro-4,6′-dimethyl-[3,4′-bipyridin]-2′-yl)-5-(5-methylpyridin-3-yl)-1,2,4-oxadiazole] |
| 4 | 6.73 | Cc1ccncc1-c1cc(-c2noc(-c3ccc(F)cn3)n2)nc(C(F)F)c1 [Compound 60, 3-(6′-(difluoromethyl)-4-methyl-[3,4′-bipyridin]-2′-yl)-5-(5-fluoropyridin-2-yl)-1,2,4-oxadiazole] |
| 4 | 5.96 | Cc1ccncc1-c1cc(-c2nc(-c3cccc(F)c3)c[nH]2)nc(C)c1F [Compound 63, 3′-fluoro-6′-(4-(3-fluorophenyl)-1H-imidazol-2-yl)-2′,4-dimethyl-3,4′-bipyridine] |
| 2 | 6.47 | COc1cncc(-c2cc(-c3nnc(-c4ccc(F)cn4)o3)nc(C)c2F)c1 [Compound 107, 2-(5′-fluoro-5-methoxy-6′-methyl-[3,4′-bipyridin]-2′-yl)-5-(5-fluoropyridin-2-yl)-1,3,4-oxadiazole] |
| 11 | 6.94 | COc1c(-c2cncc(F)c2)cc(-c2n[nH]c(-c3cccc(F)c3)n2)nc1C [Compound 101, 5-fluoro-6′-(5-(3-fluorophenyl)-1H-1,2,4-triazol-3-yl)-3′-methoxy-2′-methyl-3,4′-bipyridine] |
| 21 | < 5.00 | Cc1cc(O[C@@H]2CCOC2)cc(-c2noc(-c3ccc(F)cn3)n2)n1 [Compound 112, (R)-5-(5-fluoropyridin-2-yl)-3-(6-methyl-4-((tetrahydrofuran-3-yl)oxy)pyridin-2-yl)-1,2,4-oxadiazole] |
| 1 | 7.03 | COc1cc(-c2cc(-c3nnc(-c4ccc(F)cn4)o3)nc(C)c2F)ccn1 [Compound 108, 2-(5-fluoro-2′-methoxy-6-methyl-[4,4′-bipyridin]-2-yl)-5-(5-fluoropyridin-2-yl)-1,3,4-oxadiazole] |
| 1 | 7.09 | Cc1nc(-c2n[nH]c(-c3ccccc3F)n2)cc(-c2cncc(F)c2)c1F [Compound 98, 3′,5-difluoro-6′-(5-(2-fluorophenyl)-1H-1,2,4-triazol-3-yl)-2′-methyl-3,4′-bipyridine] |
| 39 | < 5.00 | Cc1ccc(-c2nc(-c3cc(-c4cnccc4C)c(F)c(C)n3)no2)nc1 [Compound 64, 3-(5′-fluoro-4,6′-dimethyl-[3,4′-bipyridin]-2′-yl)-5-(5-methylpyridin-2-yl)-1,2,4-oxadiazole] |
| 2 | 7.33 | Cc1nc(-c2n[nH]c(-c3ccc(F)cc3)n2)cc(-c2cncc(F)c2)c1F [Compound 99, 3′,5-difluoro-6′-(5-(4-fluorophenyl)-1H-1,2,4-triazol-3-yl)-2′-methyl-3,4′-bipyridine] |

From patent US20250026743A1, “HETEROARYL-LINKED ANALOGS AS MGLU5 NEGATIVE ALLOSTERIC MODULATORS AND METHODS OF MAKING AND USING THE SAME” (Vanderbilt University, priority 2021, published 2025)
